According to paper PMC4508061, “Selectivity Profiling and Biological Activity of Novel β-Carbolines as Potent and Selective DYRK1 Kinase Inhibitors” (PLoS ONE, 2015):

Columns and labels:
Test in all cases: ProQinase radiometric kinase panel
Settings in all cases: mean of 2 exp.
p38-beta = p38-beta (Homo sapiens, UniProt Q15759)
MST4 = MST4 (Homo sapiens, UniProt Q9P289)
PHKG2 = PHKG2 (Homo sapiens, UniProt P15735)
RIPK5 = RIPK5 (Homo sapiens, UniProt Q6XUX3)
STK23 = STK23 (Homo sapiens, UniProt Q9UPE1)
DDR2 = DDR2 (Homo sapiens, UniProt Q16832)
SRC = SRC (Homo sapiens, UniProt P12931)
ERK2 = ERK2 (Homo sapiens, UniProt P28482)
MARK3 = MARK3 (Homo sapiens, UniProt P27448)
MEKK2 = MEKK2 (Homo sapiens, UniProt Q9Y2U5)
MAP3K10 = MAP3K10 (Homo sapiens, UniProt Q02779)
CDK4/CycD1 = CDK4/CycD1 (Homo sapiens, UniProt P11802)
SNK = SNK (Homo sapiens, UniProt Q9NYY3)
FYN = FYN (Homo sapiens, UniProt P06241)
IKK-epsilon = IKK-epsilon (Homo sapiens, UniProt Q14164)
RAF1 (Y340D/Y341D) = RAF1 (Y340D/Y341D) (Homo sapiens, UniProt P04049, Y340D/Y341D)
LYN = LYN (Homo sapiens, UniProt P07948)
PKC-iota = PKC-iota (Homo sapiens, UniProt P41743)
MKK6 (S207D/T211D) = MKK6 (S207D/T211D) (Homo sapiens, UniProt P52564, S207D/T211D)
SGK3 = SGK3 (Homo sapiens, UniProt Q96BR1)
IRAK1 = IRAK1 (Homo sapiens, UniProt P51617)
MAP3K7 = MAP3K7 (Homo sapiens, UniProt O43318)
FER = FER (Homo sapiens, UniProt P16591)
MAPKAPK5 = MAPKAPK5 (Homo sapiens, UniProt Q8IW41)
SGK1 = SGK1 (Homo sapiens, UniProt O00141)
ZAK = ZAK (Homo sapiens, UniProt Q9NYL2)
LRRK2 = LRRK2 (Homo sapiens, UniProt Q5S007)
B-RAF = B-RAF (Homo sapiens, UniProt P15056)
VEGF-R3 = VEGF-R3 (Homo sapiens, UniProt P35916)
MAPKAPK3 = MAPKAPK3 (Homo sapiens, UniProt Q16644)
CDK2/CycA2 = CDK2/CycA2 (Homo sapiens, UniProt P24941)
AKT2 = AKT2 (Homo sapiens, UniProt P31751)
CDK1/CycA2 = CDK1/CycA2 (Homo sapiens, UniProt P06493)
PRKX = PRKX (Homo sapiens, UniProt P51817)
ERK1 = ERK1 (Homo sapiens, UniProt P27361)
JAK3 = JAK3 (Homo sapiens, UniProt P52333)
PKC-gamma = PKC-gamma (Homo sapiens, UniProt P05129)
PDGFR-beta = PDGFR-beta (Homo sapiens, UniProt P09619)
BMX = BMX (Homo sapiens, UniProt P51813)

Sequence of FYN (P06241 whole entry): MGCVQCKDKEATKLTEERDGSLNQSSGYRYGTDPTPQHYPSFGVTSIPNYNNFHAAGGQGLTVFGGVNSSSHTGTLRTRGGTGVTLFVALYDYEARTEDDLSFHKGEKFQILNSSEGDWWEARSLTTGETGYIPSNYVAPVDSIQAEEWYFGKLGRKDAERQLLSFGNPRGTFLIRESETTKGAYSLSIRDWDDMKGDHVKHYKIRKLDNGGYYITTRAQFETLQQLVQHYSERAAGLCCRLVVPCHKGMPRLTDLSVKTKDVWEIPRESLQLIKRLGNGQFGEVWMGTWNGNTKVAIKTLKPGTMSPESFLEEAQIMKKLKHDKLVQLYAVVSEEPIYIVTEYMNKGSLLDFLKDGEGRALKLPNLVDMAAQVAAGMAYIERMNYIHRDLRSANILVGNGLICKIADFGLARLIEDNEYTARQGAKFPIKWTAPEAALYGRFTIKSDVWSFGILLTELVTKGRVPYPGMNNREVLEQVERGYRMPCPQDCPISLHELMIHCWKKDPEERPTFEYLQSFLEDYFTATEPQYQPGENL
Sequence of VEGF-R3 (P35916 25-1363): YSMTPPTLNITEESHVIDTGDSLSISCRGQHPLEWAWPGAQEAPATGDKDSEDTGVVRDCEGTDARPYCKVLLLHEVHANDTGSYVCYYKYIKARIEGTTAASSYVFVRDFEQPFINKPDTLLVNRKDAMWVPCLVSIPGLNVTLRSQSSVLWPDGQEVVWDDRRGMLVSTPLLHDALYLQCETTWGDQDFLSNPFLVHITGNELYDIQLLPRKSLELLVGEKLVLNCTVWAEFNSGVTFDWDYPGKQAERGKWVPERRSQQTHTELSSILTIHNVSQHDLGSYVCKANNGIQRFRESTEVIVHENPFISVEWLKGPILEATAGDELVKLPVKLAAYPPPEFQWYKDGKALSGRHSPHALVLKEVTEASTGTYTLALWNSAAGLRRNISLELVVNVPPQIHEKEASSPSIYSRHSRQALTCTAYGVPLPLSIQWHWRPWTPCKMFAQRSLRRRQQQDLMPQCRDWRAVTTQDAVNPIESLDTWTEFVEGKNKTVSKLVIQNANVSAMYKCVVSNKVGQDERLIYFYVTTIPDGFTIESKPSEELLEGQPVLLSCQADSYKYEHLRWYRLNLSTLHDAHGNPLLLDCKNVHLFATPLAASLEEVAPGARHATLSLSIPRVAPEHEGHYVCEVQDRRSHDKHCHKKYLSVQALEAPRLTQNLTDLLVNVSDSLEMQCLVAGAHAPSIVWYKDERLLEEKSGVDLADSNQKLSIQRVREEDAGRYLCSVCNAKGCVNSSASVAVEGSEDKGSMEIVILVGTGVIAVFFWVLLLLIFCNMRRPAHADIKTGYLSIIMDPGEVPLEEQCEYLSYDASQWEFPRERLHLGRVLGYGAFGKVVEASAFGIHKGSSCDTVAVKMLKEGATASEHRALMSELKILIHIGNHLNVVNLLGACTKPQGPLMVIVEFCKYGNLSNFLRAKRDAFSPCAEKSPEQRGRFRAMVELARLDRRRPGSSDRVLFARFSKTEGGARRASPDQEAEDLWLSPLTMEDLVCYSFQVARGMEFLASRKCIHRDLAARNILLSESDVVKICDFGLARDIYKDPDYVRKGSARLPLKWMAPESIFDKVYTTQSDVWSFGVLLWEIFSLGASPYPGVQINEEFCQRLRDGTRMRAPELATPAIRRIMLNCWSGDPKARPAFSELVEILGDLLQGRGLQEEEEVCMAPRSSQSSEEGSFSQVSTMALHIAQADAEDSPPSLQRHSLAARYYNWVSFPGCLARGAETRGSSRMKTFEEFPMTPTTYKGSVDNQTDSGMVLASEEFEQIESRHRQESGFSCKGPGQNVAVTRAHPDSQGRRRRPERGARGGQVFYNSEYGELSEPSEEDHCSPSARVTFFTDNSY
Sequence of IKK-epsilon (Q14164 whole entry): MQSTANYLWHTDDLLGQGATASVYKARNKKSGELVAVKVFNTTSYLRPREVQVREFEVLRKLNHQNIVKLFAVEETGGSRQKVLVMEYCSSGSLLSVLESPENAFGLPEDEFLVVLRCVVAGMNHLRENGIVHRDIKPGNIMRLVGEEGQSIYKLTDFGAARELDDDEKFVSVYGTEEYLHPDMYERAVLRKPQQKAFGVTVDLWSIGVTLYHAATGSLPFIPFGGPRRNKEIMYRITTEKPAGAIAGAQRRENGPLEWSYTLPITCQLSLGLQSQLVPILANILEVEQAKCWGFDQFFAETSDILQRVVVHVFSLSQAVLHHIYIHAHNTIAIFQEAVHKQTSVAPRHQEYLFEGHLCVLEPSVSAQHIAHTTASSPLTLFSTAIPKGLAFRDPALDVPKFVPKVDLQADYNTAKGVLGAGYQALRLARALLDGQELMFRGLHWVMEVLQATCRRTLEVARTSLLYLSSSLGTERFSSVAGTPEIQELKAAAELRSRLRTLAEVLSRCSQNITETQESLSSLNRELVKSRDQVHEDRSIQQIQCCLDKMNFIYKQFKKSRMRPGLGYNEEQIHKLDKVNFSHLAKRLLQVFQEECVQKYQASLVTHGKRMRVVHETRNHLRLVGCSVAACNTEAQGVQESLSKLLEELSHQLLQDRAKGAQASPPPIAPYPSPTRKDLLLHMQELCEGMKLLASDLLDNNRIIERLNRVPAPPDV
Sequence of DDR2 (Q16832 22-855): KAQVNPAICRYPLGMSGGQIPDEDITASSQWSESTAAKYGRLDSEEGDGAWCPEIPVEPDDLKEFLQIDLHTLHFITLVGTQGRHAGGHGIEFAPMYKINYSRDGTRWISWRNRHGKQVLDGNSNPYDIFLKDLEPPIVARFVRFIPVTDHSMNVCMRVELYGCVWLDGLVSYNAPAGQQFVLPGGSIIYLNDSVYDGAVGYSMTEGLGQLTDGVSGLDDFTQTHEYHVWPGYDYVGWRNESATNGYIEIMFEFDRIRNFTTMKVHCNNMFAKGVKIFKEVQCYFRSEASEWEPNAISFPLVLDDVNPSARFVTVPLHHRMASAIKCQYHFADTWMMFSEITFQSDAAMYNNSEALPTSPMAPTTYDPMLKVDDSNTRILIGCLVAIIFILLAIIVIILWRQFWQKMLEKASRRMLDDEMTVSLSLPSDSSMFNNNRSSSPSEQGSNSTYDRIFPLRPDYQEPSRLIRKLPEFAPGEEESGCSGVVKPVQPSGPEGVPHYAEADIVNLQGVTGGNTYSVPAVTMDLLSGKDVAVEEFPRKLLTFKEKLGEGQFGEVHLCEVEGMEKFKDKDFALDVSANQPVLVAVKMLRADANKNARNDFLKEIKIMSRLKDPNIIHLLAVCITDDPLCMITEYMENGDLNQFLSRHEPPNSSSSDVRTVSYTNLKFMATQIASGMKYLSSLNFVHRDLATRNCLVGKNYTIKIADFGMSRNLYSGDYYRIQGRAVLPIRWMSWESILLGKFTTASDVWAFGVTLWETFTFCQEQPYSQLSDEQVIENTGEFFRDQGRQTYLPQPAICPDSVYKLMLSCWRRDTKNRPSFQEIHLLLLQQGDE
Sequence of MAPKAPK3 (Q16644 whole entry): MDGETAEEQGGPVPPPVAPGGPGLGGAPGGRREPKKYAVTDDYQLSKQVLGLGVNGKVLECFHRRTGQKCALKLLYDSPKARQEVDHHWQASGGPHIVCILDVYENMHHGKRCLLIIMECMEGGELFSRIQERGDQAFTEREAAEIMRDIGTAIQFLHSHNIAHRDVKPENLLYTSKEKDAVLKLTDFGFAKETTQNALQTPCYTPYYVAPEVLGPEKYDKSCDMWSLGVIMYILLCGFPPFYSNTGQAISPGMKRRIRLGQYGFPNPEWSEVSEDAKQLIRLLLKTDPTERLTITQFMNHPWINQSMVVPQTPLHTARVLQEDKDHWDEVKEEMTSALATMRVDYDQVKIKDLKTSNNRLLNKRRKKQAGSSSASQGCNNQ
Sequence of MEKK2 (Q9Y2U5 whole entry): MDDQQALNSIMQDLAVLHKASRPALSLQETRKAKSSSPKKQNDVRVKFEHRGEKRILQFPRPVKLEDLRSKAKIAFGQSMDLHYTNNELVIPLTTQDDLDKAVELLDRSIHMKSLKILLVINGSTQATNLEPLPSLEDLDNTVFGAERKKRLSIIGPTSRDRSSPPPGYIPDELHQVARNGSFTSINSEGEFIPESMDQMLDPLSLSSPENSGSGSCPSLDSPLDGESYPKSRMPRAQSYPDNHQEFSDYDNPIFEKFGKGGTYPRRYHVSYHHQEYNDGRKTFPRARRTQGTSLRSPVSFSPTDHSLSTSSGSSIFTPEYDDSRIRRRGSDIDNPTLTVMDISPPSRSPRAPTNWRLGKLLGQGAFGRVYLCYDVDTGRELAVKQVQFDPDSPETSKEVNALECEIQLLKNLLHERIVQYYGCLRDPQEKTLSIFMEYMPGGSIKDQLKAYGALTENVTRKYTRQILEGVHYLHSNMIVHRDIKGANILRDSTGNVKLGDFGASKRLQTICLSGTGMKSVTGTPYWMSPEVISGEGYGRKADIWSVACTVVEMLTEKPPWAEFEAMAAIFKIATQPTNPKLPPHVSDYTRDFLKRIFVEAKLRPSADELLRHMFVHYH
Sequence of ERK1 (P27361 whole entry): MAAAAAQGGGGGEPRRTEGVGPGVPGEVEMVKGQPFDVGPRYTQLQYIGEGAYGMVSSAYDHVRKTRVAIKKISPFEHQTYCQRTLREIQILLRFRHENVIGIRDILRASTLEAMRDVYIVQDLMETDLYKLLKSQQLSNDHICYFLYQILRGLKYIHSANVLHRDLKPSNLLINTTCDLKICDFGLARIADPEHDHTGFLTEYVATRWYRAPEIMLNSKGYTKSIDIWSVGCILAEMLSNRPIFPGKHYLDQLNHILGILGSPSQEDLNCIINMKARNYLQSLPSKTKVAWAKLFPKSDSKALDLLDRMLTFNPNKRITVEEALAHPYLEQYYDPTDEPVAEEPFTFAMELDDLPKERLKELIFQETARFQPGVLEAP

COc1ccc2c3ccnc(Cl)c3n(CC#N)c2c1 [AnnH75] was tested, and the “residual activity at 1 µM, Mean” value (p38-beta) was 105 % of control, the “residual activity at 1 µM, Mean” value (MST4) was 92 % of control and the “residual activity at 1 µM, Mean” value (PHKG2) was 94 % of control. The “residual activity at 1 µM, Mean” value (RIPK5) was 91 % of control, the “residual activity at 1 µM, Mean” value (STK23) was 93 % of control and the “residual activity at 1 µM, Mean” value (DDR2) was 97 % of control. For the same molecule, the “residual activity at 1 µM, Mean” value (SRC) was 95 % of control, the “residual activity at 1 µM, Mean” value (ERK2) was 87 % of control and the “residual activity at 1 µM, Mean” value (MARK3) was 100 % of control. The “residual activity at 1 µM, Mean” value (MEKK2) was 105 % of control, the “residual activity at 1 µM, Mean” value (MAP3K10) was 91 % of control and the “residual activity at 1 µM, Mean” value (CDK4/CycD1) was 100 % of control. The “residual activity at 1 µM, Mean” value (SNK) was 92 % of control, the “residual activity at 1 µM, Mean” value (FYN) was 92 % of control and the “residual activity at 1 µM, Mean” value (IKK-epsilon) was 95 % of control. For the same molecule, the “residual activity at 1 µM, Mean” value (RAF1 (Y340D/Y341D)) was 99 % of control, the “residual activity at 1 µM, Mean” value (LYN) was 77 % of control and the “residual activity at 1 µM, Mean” value (PKC-iota) was 102 % of control. The “residual activity at 1 µM, Mean” value (MKK6 (S207D/T211D)) was 100 % of control, the “residual activity at 1 µM, Mean” value (SGK3) was 108 % of control and the “residual activity at 1 µM, Mean” value (IRAK1) was 95 % of control. The “residual activity at 1 µM, Mean” value (MAP3K7) was 91 % of control, the “residual activity at 1 µM, Mean” value (FER) was 93 % of control and the “residual activity at 1 µM, Mean” value (MAPKAPK5) was 89 % of control. The “residual activity at 1 µM, Mean” value (SGK1) was 91 % of control, the “residual activity at 1 µM, Mean” value (ZAK) was 94 % of control and the “residual activity at 1 µM, Mean” value (LRRK2) was 83 % of control. For the same molecule, the “residual activity at 1 µM, Mean” value (B-RAF) was 105 % of control, the “residual activity at 1 µM, Mean” value (VEGF-R3) was 93 % of control and the “residual activity at 1 µM, Mean” value (MAPKAPK3) was 94 % of control. For the same molecule, the “residual activity at 1 µM, Mean” value (CDK2/CycA2) was 88 % of control, the “residual activity at 1 µM, Mean” value (AKT2) was 106 % of control and the “residual activity at 1 µM, Mean” value (CDK1/CycA2) was 79 % of control. The “residual activity at 1 µM, Mean” value (PRKX) was 80 % of control, the “residual activity at 1 µM, Mean” value (ERK1) was 87 % of control and the “residual activity at 1 µM, Mean” value (JAK3) was 101 % of control. The “residual activity at 1 µM, Mean” value (PKC-gamma) was 108 % of control, the “residual activity at 1 µM, Mean” value (PDGFR-beta) was 88 % of control and the “residual activity at 1 µM, Mean” value (BMX) was 79 % of control.
